The record followed here is patent publication US10829473B2, “Modulators of the cystic fibrosis transmembrane conductance regulator protein and methods of use” (AbbVie Overseas S.Á.R.L., priority 2017, dated 2020).

The assay has as its target T1, F508delCFTR (Homo sapiens, UniProt P13569, DEL508-508).
T1 construct: expressed in transfected cells; host or cells: CFBE41o- human lung derived epithelial cells (CFBE41o-F508delCFTR-HRP), doxycycline-inducible
The assay is described as follows: Cell Surface Expression-Horse Radish Peroxidase (CSE-HRP) Assay.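 On EC50 (with co-corrector): co-corrector chromenyl benzoic acid corrector at 2 or 3 µM.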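 On Maximum % activity (without co-corrector): % of on-plate positive control chromenyl benzoic acid corrector at 2 or 3 µM.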 The assay is classed as cell-based. Particulars: for Maximum % activity (with co-corrector) / Emax: maximum at any tested concentration; for Emax: read-out: Maximum % activity (without co-corrector). Put shortly: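 Corrector compounds were given as 8-point 3-fold series from 20 or 30 μM, with or without a 2 μM co-corrector, for 18-24 h at 33 °C. Surface HRP was read by luminol luminescence as % of positive control; variable-Hill-slope sigmoidal fitting gave EC50 from triplicate plates.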

Setting [1] is: test compound with co-corrector.
The mark [2] stands for this setting: test compound with co-corrector, read-out: EC50 (with co-corrector).
[3] abbreviates: test compound without co-corrector.
Setting [4] is: test compound without co-corrector, read-out: EC50 (without co-corrector).

As usually defined, the EC50 is the concentration needed to bring the measured effect to its halfway point.

Read-outs that look alike come from different tables or passages of the source.

T1 sequence (P13569 with tags, fused parts or gaps DEL508-508): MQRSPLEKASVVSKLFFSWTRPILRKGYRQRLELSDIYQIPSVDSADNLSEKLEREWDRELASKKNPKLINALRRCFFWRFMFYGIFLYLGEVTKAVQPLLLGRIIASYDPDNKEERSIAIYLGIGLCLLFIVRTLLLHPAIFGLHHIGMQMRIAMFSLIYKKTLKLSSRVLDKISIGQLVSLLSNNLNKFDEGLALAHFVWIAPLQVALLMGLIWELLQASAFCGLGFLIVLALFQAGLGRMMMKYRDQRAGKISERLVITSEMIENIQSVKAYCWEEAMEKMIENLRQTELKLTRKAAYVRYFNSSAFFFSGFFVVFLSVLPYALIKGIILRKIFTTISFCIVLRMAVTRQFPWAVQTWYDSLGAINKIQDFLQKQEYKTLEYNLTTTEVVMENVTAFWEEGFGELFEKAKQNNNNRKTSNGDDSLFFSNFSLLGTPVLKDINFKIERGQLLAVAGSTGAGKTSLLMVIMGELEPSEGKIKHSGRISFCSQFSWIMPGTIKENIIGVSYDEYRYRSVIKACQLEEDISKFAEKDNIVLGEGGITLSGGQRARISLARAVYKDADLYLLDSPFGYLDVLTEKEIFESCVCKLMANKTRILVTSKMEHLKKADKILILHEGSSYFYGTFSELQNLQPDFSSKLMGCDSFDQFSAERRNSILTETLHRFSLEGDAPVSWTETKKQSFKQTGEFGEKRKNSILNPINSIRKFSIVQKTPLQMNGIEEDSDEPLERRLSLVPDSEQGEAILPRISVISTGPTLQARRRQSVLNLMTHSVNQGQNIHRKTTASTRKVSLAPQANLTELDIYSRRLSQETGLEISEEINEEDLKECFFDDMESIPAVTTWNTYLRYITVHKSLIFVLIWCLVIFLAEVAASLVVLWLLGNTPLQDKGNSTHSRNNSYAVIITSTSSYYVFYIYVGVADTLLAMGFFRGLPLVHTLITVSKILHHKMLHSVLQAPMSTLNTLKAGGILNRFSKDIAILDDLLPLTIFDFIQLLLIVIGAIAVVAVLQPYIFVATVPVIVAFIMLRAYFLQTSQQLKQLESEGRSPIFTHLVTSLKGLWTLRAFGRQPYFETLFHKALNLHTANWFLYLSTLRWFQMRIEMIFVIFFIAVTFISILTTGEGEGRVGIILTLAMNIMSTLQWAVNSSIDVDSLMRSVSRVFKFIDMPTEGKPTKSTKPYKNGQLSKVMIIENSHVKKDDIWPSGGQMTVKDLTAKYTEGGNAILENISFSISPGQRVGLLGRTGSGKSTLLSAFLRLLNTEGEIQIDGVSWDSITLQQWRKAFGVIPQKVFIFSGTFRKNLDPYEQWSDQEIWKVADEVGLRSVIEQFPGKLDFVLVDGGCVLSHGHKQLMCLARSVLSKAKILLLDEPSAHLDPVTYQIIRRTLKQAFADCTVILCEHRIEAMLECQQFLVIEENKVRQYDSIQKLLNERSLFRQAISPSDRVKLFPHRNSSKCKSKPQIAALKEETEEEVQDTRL

`Cc1ccc(C2(C(=O)NS(=O)(=O)c3cccc4nc(C)ccc34)CC2)c(OC(C)C)n1` [Example GI-81, 1-{6-methyl-2-[(propan-2-yl)oxy]pyridin-3-yl}-N-(2-methylquinoline-5-sulfonyl)cyclopropane-1-carboxamide]: the “Maximum % activity (with co-corrector)” value under setting [1] was “+++ (≥350)”. Also, the 50% effective concentration (EC50) is less than 3 µM under setting [2] and less than 3 µM under setting [4]. Moreover, the Emax under setting [3] was greater than 150%.
Take `Cc1ccc(C2(C(=O)NS(=O)(=O)c3cccc4[nH]ccc34)CC2)c(OC(C)C)n1` [Example GI-82, N-(1H-indole-4-sulfonyl)-1-{6-methyl-2-[(propan-2-yl)oxy]pyridin-3-yl}cyclopropane-1-carboxamide]: the “Maximum % activity (with co-corrector)” value under setting [1] is given as “+++ (≥350)”. For the same compound, the 50% effective concentration (EC50) is less than 3 µM under setting [2] and less than 3 µM under setting [4]. Moreover, the Emax under setting [3] was greater than 150%.
Turning to `CC(C)Oc1ncc(N2CCC2)cc1C1(C(=O)NS(=O)(=O)c2cccc3ncccc23)CC1` [Example GI-83, 1-{5-(azetidin-1-yl)-2-[(propan-2-yl)oxy]pyridin-3-yl}-N-(quinoline-5-sulfonyl)cyclopropane-1-carboxamide], the “Maximum % activity (with co-corrector)” value under setting [1] was “+++ (≥350)”. In addition, the EC50 by setting is: under setting [2], less than 3 µM; under setting [4], 3 to 10 µM. Also, under setting [3], the Emax is greater than 150%.
The corresponding values for `Cc1ccc2c(S(=O)(=O)NC(=O)C3(c4cc(N5CCC5)cnc4OC(C)C)CC3)cccc2n1` [Example GI-84, 1-{5-(azetidin-1-yl)-2-[(propan-2-yl)oxy]pyridin-3-yl}-N-(2-methylquinoline-5-sulfonyl)cyclopropane-1-carboxamide] are “+++ (≥350)”, less than 3 µM, 3 to 10 µM and greater than 150%.
Turning to `CC(C)Oc1ncc(N2CCC2)cc1C1(C(=O)NS(=O)(=O)c2cccc3[nH]ccc23)CC1` [Example GI-85, 1-{5-(azetidin-1-yl)-2-[(propan-2-yl)oxy]pyridin-3-yl}-N-(1H-indole-4-sulfonyl)cyclopropane-1-carboxamide], the “Maximum % activity (with co-corrector)” value under setting [1] is “+++ (≥350)”. The concentration giving a half-maximal response (EC50) by setting is: under setting [2], less than 3 µM; under setting [4], 3 to 10 µM. Besides, the Emax under setting [3] was greater than 150%.
On to `CC(C)COc1ccc(OC(C)C)c(C2(C(=O)NS(=O)(=O)c3cccc4ncccc34)CC2)n1` [Example GI-86, 1-{6-(2-methylpropoxy)-3-[(propan-2-yl)oxy]pyridin-2-yl}-N-(quinoline-5-sulfonyl)cyclopropane-1-carboxamide], for which the “Maximum % activity (with co-corrector)” value under setting [1] is reported as “+++ (≥350)”. For the same compound, the EC50 under setting [2] is less than 3 µM and the EC50 under setting [4] was less than 3 µM. Moreover, the Emax under setting [3] is greater than 150%.
As to `COc1cnc(OCC2CC2)c(C2(C(=O)NS(=O)(=O)c3cccc4ncccc34)CC2)c1` [Example GI-87, 1-[2-(cyclopropylmethoxy)-5-methoxypyridin-3-yl]-N-(quinoline-5-sulfonyl)cyclopropane-1-carboxamide], under setting [1], the “Maximum % activity (with co-corrector)” value is given as “+++ (≥350)”. For the same compound, the EC50 runs as follows: under setting [2], less than 3 µM; under setting [4], 3 to 10 µM. Under setting [3], the Emax is greater than 150%.
On the same counts, the results for `COc1cnc(OCC2CC2)c(C2(C(=O)NS(=O)(=O)c3cccc4[nH]ccc34)CC2)c1` [Example GI-88, 1-[2-(cyclopropylmethoxy)-5-methoxypyridin-3-yl]-N-(1H-indole-4-sulfonyl)cyclopropane-1-carboxamide] are “+++ (≥350)”, less than 3 µM, less than 3 µM and greater than 150%.
The corresponding values for `CC(C)COc1ccc(OC(C)C)c(C2(C(=O)NS(=O)(=O)c3cccc4[nH]ccc34)CC2)n1` [Example GI-89, N-(1H-indole-4-sulfonyl)-1-{6-(2-methylpropoxy)-3-[(propan-2-yl)oxy]pyridin-2-yl}cyclopropane-1-carboxamide] are “+++ (≥350)”, less than 3 µM, less than 3 µM and greater than 150%.
Turning to `Cc1ccc2c(S(=O)(=O)NC(=O)C3(c4nc(OCC(C)C)ccc4OC(C)C)CC3)cccc2n1` [Example GI-90, 1-{6-(2-methylpropoxy)-3-[(propan-2-yl)oxy]pyridin-2-yl}-N-(2-methylquinoline-5-sulfonyl)cyclopropane-1-carboxamide], the “Maximum % activity (with co-corrector)” value under setting [1] was “+++ (≥350)”. Besides, the concentration for a half-maximal effect (EC50) reads like this: under setting [2], less than 3 µM; under setting [4], less than 3 µM. The Emax under setting [3] was greater than 150%.
Regarding `COc1cc(C2(C(=O)NS(=O)(=O)c3cccc4ncccc34)CC2)c(OCC2CC2)cn1` [Example GI-91, 1-[5-(cyclopropylmethoxy)-2-methoxypyridin-4-yl]-N-(quinoline-5-sulfonyl)cyclopropane-1-carboxamide], the “Maximum % activity (with co-corrector)” value under setting [1] is on record as “+++ (≥350)”. The EC50 runs as follows: under setting [2], less than 3 µM; under setting [4], 3 to 10 µM. The Emax under setting [3] is greater than 150%.
The corresponding values for `COc1cnc(OCC2CC2)c(C2(C(=O)NS(=O)(=O)c3cccc4nc(C)ccc34)CC2)c1` [Example GI-92, 1-[2-(cyclopropylmethoxy)-5-methoxypyridin-3-yl]-N-(2-methylquinoline-5-sulfonyl)cyclopropane-1-carboxamide] are “+++ (≥350)”, less than 3 µM, less than 3 µM and greater than 150%.
For the compound `COCCOc1ncc(C2CCC2)cc1C1(C(=O)NS(=O)(=O)c2cccc3nc(C)ccc23)CC1` [Example GI-94, 1-[5-cyclobutyl-2-(2-methoxyethoxy)pyridin-3-yl]-N-(2-methylquinoline-5-sulfonyl)cyclopropane-1-carboxamide], under setting [1], the “Maximum % activity (with co-corrector)” value is on record as “+++ (≥350)”. In addition, the concentration for a half-maximal effect (EC50) is less than 3 µM under setting [2] and less than 3 µM under setting [4]. For the same compound, the Emax under setting [3] is greater than 150%.
As for `COc1cc(C2(C(=O)NS(=O)(=O)c3cccc4[nH]ccc34)CC2)c(OCC2CC2)cn1` [Example GI-95, 1-[5-(cyclopropylmethoxy)-2-methoxypyridin-4-yl]-N-(1H-indole-4-sulfonyl)cyclopropane-1-carboxamide], under setting [1], the “Maximum % activity (with co-corrector)” value is “+++ (≥350)”. In addition, the concentration for a half-maximal effect (EC50) reads like this: under setting [2], less than 3 µM; under setting [4], less than 3 µM. The Emax under setting [3] is greater than 150%.
For `Cc1cnc(OCC2CC2)c(C2(C(=O)NS(=O)(=O)c3cccc4ncccc34)CC2)c1` [Example GI-96, 1-[2-(cyclopropylmethoxy)-5-methylpyridin-3-yl]-N-(quinoline-5-sulfonyl)cyclopropane-1-carboxamide], the “Maximum % activity (with co-corrector)” value under setting [1] was “+++ (≥350)”. For the same compound, the EC50 reads like this: under setting [2], less than 3 µM; under setting [4], 3 to 10 µM. Besides, under setting [3], the Emax was greater than 150%.
The corresponding values for `Cc1cnc(OCC2CC2)c(C2(C(=O)NS(=O)(=O)c3cccc4[nH]ccc34)CC2)c1` [Example GI-97, 1-[2-(cyclopropylmethoxy)-5-methylpyridin-3-yl]-N-(1H-indole-4-sulfonyl)cyclopropane-1-carboxamide] are “+++ (≥350)”, less than 3 µM, less than 3 µM and greater than 150%.
Turning to `O=C(NS(=O)(=O)c1cccc2[nH]ccc12)C1(c2cc(C3CCC3)cnc2OCC2CC2)CC1` [Example GI-98, 1-[5-cyclobutyl-2-(cyclopropylmethoxy)pyridin-3-yl]-N-(1H-indole-4-sulfonyl)cyclopropane-1-carboxamide], the “Maximum % activity (with co-corrector)” value under setting [1] is given as “+++ (≥350)”. The EC50 reads like this: under setting [2], less than 3 µM; under setting [4], less than 3 µM. Moreover, the Emax under setting [3] was greater than 150%.
`COCCOc1ncc(C2CCC2)cc1C1(C(=O)NS(=O)(=O)c2cccc3[nH]ccc23)CC1` [Example GI-99, 1-[5-cyclobutyl-2-(2-methoxyethoxy)pyridin-3-yl]-N-(1H-indole-4-sulfonyl)cyclopropane-1-carboxamide]: the “Maximum % activity (with co-corrector)” value under setting [1] is “+++ (≥350)”. Moreover, the EC50 reads like this: under setting [2], less than 3 µM; under setting [4], less than 3 µM. The Emax under setting [3] is greater than 150%.
Turning to `O=C(NS(=O)(=O)c1cccc2ncccc12)C1(c2cc(C3CCC3)cnc2OCC2CC2)CC1` [Example GI-100, 1-[5-cyclobutyl-2-(cyclopropylmethoxy)pyridin-3-yl]-N-(quinoline-5-sulfonyl)cyclopropane-1-carboxamide], the “Maximum % activity (with co-corrector)” value under setting [1] is listed as “+++ (≥350)”. The EC50 is less than 3 µM under setting [2] and less than 3 µM under setting [4]. Besides, under setting [3], the Emax is greater than 150%.
Turning to `Cc1cnc(OCC2CC2)c(C2(C(=O)NS(=O)(=O)c3cccc4nc(C)ccc34)CC2)c1` [Example GI-101, 1-[2-(cyclopropylmethoxy)-5-methylpyridin-3-yl]-N-(2-methylquinoline-5-sulfonyl)cyclopropane-1-carboxamide], the “Maximum % activity (with co-corrector)” value under setting [1] was “+++ (≥350)”. The EC50 runs as follows: under setting [2], less than 3 µM; under setting [4], 3 to 10 µM. Also, the Emax under setting [3] is greater than 150%.
The corresponding values for `CCc1cnc(N2CCC(OC(C)C)CC2)c(C2(C(=O)NS(=O)(=O)c3cccc4[nH]ccc34)CC2)c1` [Example GI-102, 1-(5-ethyl-2-{4-[(propan-2-yl)oxy]piperidin-1-yl}pyridin-3-yl)-N-(1H-indole-4-sulfonyl)cyclopropane-1-carboxamide] are “+++ (≥350)”, less than 3 µM, 3 to 10 µM and greater than 150%.
